Reference: publication PMC5298231, “The Malaria Parasite's Lactate Transporter PfFNT Is the Target of Antiplasmodial Compounds Identified in Whole Cell Phenotypic Screens” (PLoS Pathogens, 2017)
Peptide text beside a SMILES is read from it.

Test system: erythrocytes infected with 3D7 trophozoites
Type: cell-based, Plasmodium falciparum
Details: sheet Ratio; for Ratio of metabolite abundance, Exp1_1hr: Exp1, 1hr; for Ratio of metabolite abundance, Exp1_3hr: Exp1, 3hr; for Ratio of metabolite abundance, Exp1_6hr: Exp1, 6hr; for Ratio of metabolite abundance, Exp2_1hr: Exp2, 1hr; for Ratio of metabolite abundance, Exp2_3hr: Exp2, 3hr; for Ratio of metabolite abundance, Exp2_6hr: Exp2, 6hr; for Ratio of metabolite abundance, Exp3_1hr: Exp3, 1hr; for Ratio of metabolite abundance, Exp3_3hr: Exp3, 3hr; for Ratio of metabolite abundance, Exp3_6hr: Exp3, 6hr

| Compound | Ratio of metabolite abundance, Exp1_1hr | Ratio of metabolite abundance, Exp1_3hr | Ratio of metabolite abundance, Exp1_6hr | Ratio of metabolite abundance, Exp2_1hr | Ratio of metabolite abundance, Exp2_3hr | Ratio of metabolite abundance, Exp2_6hr | Ratio of metabolite abundance, Exp3_1hr | Ratio of metabolite abundance, Exp3_3hr | Ratio of metabolite abundance, Exp3_6hr |
| --- | --- | --- | --- | --- | --- | --- | --- | --- | --- |
| CC(C)C[C@H](NC(=O)[C@H](C)NC(=O)[C@@H](N)CC(=O)O)C(=O)N[C@H](C(=O)O)[C@@H](C)O [DALT] (H-DALT-OH) | 0.634 | 0.4153 | 1.635 | 0.755 | 0.5469 | 1.439 | 0.7343 | 0.6802 | 1.903 |
| CC(C)[C@H](NC(=O)[C@H](CCC(=O)O)NC(=O)[C@@H](N)CC(=O)O)C(=O)NCC(=O)O [DEVG] (H-DEVG-OH) | 1.013 | 0.6309 | 0.8753 | 0.8701 | 1.059 | 1.02 | 1.139 | 1.261 | 0.9839 |
| CCCCC/C=C\C/C=C\C/C=C\CCCCCCC(=O)O [DGLA] | 0.6512 | 0.4296 | 1.744 | 0.832 | 0.6938 | 1.456 | 0.7202 | 0.7277 | 2.242 |
| CC(C)C[C@H](NC(=O)[C@@H](N)CC(=O)O)C(=O)N[C@@H](CO)C(=O)O [DLS] (H-Asp-Leu-Ser-OH) | 0.4981 | 0.5494 | 0.8725 | 0.8907 | 0.8658 | 1.124 | 0.9354 | 0.5821 | 0.7887 |
| O=C1CC(C(=O)O)NC(=O)N1 (stereo not drawn) [Dihydroorotate] | 0.7855 | 0.5689 | 0.4919 | 0.9051 | 0.4712 | 0.6702 | 0.4693 | 0.4085 | 0.3763 |
| N[C@@H](CCC(=O)O)C(=O)N[C@@H](CO)C(=O)N[C@@H](Cc1ccccc1)C(=O)NCC(=O)O [ESFG] (H-ESFG-OH) | 1.207 | 0.8233 | 1.441 | 1.518 | 1.053 | 1.4585 | 1.266 | 0.9822 | 1.358 |
| CC(C)[C@H](NC(=O)[C@@H](N)CCC(=O)O)C(=O)NCC(=O)NCC(=O)O [EVGG] (H-EVGG-OH) | 1.013 | 0.7941 | 0.8262 | 1.036 | 0.9151 | 0.9384 | 0.988 | 0.9676 | 0.8158 |
| O=C[C@H](O)[C@H](O)COP(=O)(O)O [Erythrose 4-phosphate] | 0.8874 | 1.021 | 0.7492 | 0.7497 | 0.9809 | 0.8462 | 0.7238 | 0.584 | 0.3651 |
| Cc1cc2nc3c(=O)[nH]c(=O)nc-3n(C[C@H](O)[C@H](O)[C@H](O)COP(=O)(O)OP(=O)(O)OC[C@H]3O[C@@H](n4cnc5c(N)ncnc54)[C@H](O)[C@@H]3O)c2cc1C [FAD] | 0.999 | 0.6842 | 0.7003 | 0.9752 | 0.8156 | 0.7377 | 0.855 | 0.7422 | 0.5377 |
| Cc1cc2nc3c(=O)[nH]c(=O)nc-3n(C[C@H](O)[C@H](O)[C@H](O)COP(=O)(O)O)c2cc1C [FMN] | 0.8812 | 0.6056 | 0.6532 | 1.341 | 1.123 | 0.8423 | 0.5112 | 0.5214 | 0.5073 |
| O=P(O)(O)OC[C@H]1O[C@](O)(COP(=O)(O)O)[C@@H](O)[C@@H]1O [Fructose-1-6-bisphosphate] | 2.629 | 3.883 | 1.856 | 2.007 | 1.872 | 1.498 | 1.953 | 1.49 | 0.822 |
| O=P(O)(O)OC[C@H]1OC(O)(CO)[C@@H](O)[C@@H]1O (stereo partly drawn) [Fructose-6-Phosphate] | 1.008 | 1.026 | 1.013 | 1.111 | 1.041 | 0.9386 | 1.073 | 1.052 | 0.8397 |
| Nc1nc2c(ncn2[C@@H]2O[C@H](COP(=O)(O)OP(=O)(O)O[C@H]3O[C@H](CO)[C@@H](O)[C@H](O)[C@@H]3O)[C@@H](O)[C@H]2O)c(=O)[nH]1 [GDP-mannose] | 1.172 | 0.7132 | 0.4189 | 0.9396 | 0.7145 | 0.4773 | 0.9382 | 0.7837 | 0.5338 |
| Nc1nc2c(ncn2[C@@H]2O[C@H](COP(=O)(O)OP(=O)(O)O)[C@@H](O)[C@H]2O)c(=O)[nH]1 [GDP] | 0.4319 | 0.3131 | 0.5082 | 0.6304 | 0.5095 | 0.5364 | 0.8846 | 0.5153 | 0.569 |
| Nc1nc2c(ncn2[C@@H]2O[C@H](COP(=O)(O)O)[C@@H](O)[C@H]2O)c(=O)[nH]1 [GMP] | 0.2584 | 0.2388 | 0.4652 | 0.6356 | 0.2451 | 0.4274 | 0.5874 | 0.5355 | 0.8077 |
| Nc1nc2c(ncn2[C@@H]2O[C@H](COP(=O)(O)OP(=O)(O)OP(=O)(O)O)[C@@H](O)[C@H]2O)c(=O)[nH]1 [GTP] | 0.6647 | 0.5629 | 0.5991 | 0.6384 | 0.6479 | 0.6462 | 0.7156 | 0.6328 | 0.6081 |
| O=P(O)(O)OC[C@H]1OC(O)[C@H](O)[C@@H](O)[C@@H]1O (stereo partly drawn) [Glucose-6-Phosphate] | 0.8219 | 0.7353 | 0.7494 | 0.9729 | 0.8323 | 0.7319 | 0.8489 | 0.791 | 0.6337 |
| N[C@@H](CCC(=O)O)C(=O)O [Glutamate] | 1.14 | 0.9816 | 0.9735 | 1.0715 | 0.9058 | 0.8408 | 1.009 | 0.9619 | 1.158 |
| O=C[C@H](O)COP(=O)(O)O [Glyceraldehyde 3-phosphate] | 0.7448 | 0.7431 | 0.4349 | 0.5818 | 0.6033 | 0.4986 | 0.4745 | 0.6544 | 0.4238 |
